From the CheMixHub drug solubility set

Assay: xn = mol fraction of the nth substance listed, in the solute-free solvent

**Q.** What does the source list for `O=C(O)c1cc([N+](=O)[O-])ccc1O` + CO + O?
**A.** solubility (g/100 g solution) (278.15 K, x2 = 0.05881): 0.117; solubility (g/100 g solution) (278.15 K, x2 = 0.1233): 0.41; solubility (g/100 g solution) (278.15 K, x2 = 0.1942): 1.03; solubility (g/100 g solution) (278.15 K, x2 = 0.2727): 2.03; solubility (g/100 g solution) (278.15 K, x2 = 0.3599): 4.15; solubility (g/100 g solution) (278.15 K, x2 = 0.4576): 7.29; solubility (g/100 g solution) (278.15 K, x2 = 0.5675): 9.53; solubility (g/100 g solution) (278.15 K, x2 = 0.6923): 11.6; solubility (g/100 g solution) (278.15 K, x2 = 0.835): 13.8; solubility (g/100 g solution) (283.15 K, x2 = 0.05881): 0.173; solubility (g/100 g solution) (283.15 K, x2 = 0.1233): 0.537; solubility (g/100 g solution) (283.15 K, x2 = 0.1942): 1.3; solubility (g/100 g solution) (283.15 K, x2 = 0.2727): 2.54; solubility (g/100 g solution) (283.15 K, x2 = 0.3599): 4.74; solubility (g/100 g solution) (283.15 K, x2 = 0.4576): 8.14; solubility (g/100 g solution) (283.15 K, x2 = 0.5675): 10.8; solubility (g/100 g solution) (283.15 K, x2 = 0.6923): 12.9; solubility (g/100 g solution) (283.15 K, x2 = 0.835): 15.1; solubility (g/100 g solution) (288.15 K, x2 = 0.05881): 0.235; solubility (g/100 g solution) (288.15 K, x2 = 0.1233): 0.709; solubility (g/100 g solution) (288.15 K, x2 = 0.1942): 1.61; solubility (g/100 g solution) (288.15 K, x2 = 0.2727): 3.13; solubility (g/100 g solution) (288.15 K, x2 = 0.3599): 5.63; solubility (g/100 g solution) (288.15 K, x2 = 0.4576): 9.16; solubility (g/100 g solution) (288.15 K, x2 = 0.5675): 12.5; solubility (g/100 g solution) (288.15 K, x2 = 0.6923): 14.7; solubility (g/100 g solution) (288.15 K, x2 = 0.835): 16.8; solubility (g/100 g solution) (293.15 K, x2 = 0.05881): 0.287; solubility (g/100 g solution) (293.15 K, x2 = 0.1233): 0.886; solubility (g/100 g solution) (293.15 K, x2 = 0.1942): 2; solubility (g/100 g solution) (293.15 K, x2 = 0.2727): 3.79; solubility (g/100 g solution) (293.15 K, x2 = 0.3599): 6.73; solubility (g/100 g solution) (293.15 K, x2 = 0.4576): 10.4; solubility (g/100 g solution) (293.15 K, x2 = 0.5675): 14.2; solubility (g/100 g solution) (293.15 K, x2 = 0.6923): 17; solubility (g/100 g solution) (293.15 K, x2 = 0.835): 18.7; solubility (g/100 g solution) (298.15 K, x2 = 0.05881): 0.359; solubility (g/100 g solution) (298.15 K, x2 = 0.1233): 1.08; solubility (g/100 g solution) (298.15 K, x2 = 0.1942): 2.42; solubility (g/100 g solution) (298.15 K, x2 = 0.2727): 4.57; solubility (g/100 g solution) (298.15 K, x2 = 0.3599): 7.94; solubility (g/100 g solution) (298.15 K, x2 = 0.4576): 11.9; solubility (g/100 g solution) (298.15 K, x2 = 0.5675): 15.9; solubility (g/100 g solution) (298.15 K, x2 = 0.6923): 19.2; solubility (g/100 g solution) (298.15 K, x2 = 0.835): 21.1; solubility (g/100 g solution) (303.15 K, x2 = 0.05881): 0.429; solubility (g/100 g solution) (303.15 K, x2 = 0.1233): 1.29; solubility (g/100 g solution) (303.15 K, x2 = 0.1942): 2.83; solubility (g/100 g solution) (303.15 K, x2 = 0.2727): 5.28; solubility (g/100 g solution) (303.15 K, x2 = 0.3599): 9.14; solubility (g/100 g solution) (303.15 K, x2 = 0.4576): 13.4; solubility (g/100 g solution) (303.15 K, x2 = 0.5675): 17.6; solubility (g/100 g solution) (303.15 K, x2 = 0.6923): 21.1; solubility (g/100 g solution) (303.15 K, x2 = 0.835): 23.3; solubility (g/100 g solution) (308.15 K, x2 = 0.05881): 0.505; solubility (g/100 g solution) (308.15 K, x2 = 0.1233): 1.53; solubility (g/100 g solution) (308.15 K, x2 = 0.1942): 3.35; solubility (g/100 g solution) (308.15 K, x2 = 0.2727): 6.22; solubility (g/100 g solution) (308.15 K, x2 = 0.3599): 10.4; solubility (g/100 g solution) (308.15 K, x2 = 0.4576): 15.2; solubility (g/100 g solution) (308.15 K, x2 = 0.5675): 19.5; solubility (g/100 g solution) (308.15 K, x2 = 0.6923): 23.1; solubility (g/100 g solution) (308.15 K, x2 = 0.835): 25.3; solubility (g/100 g solution) (313.15 K, x2 = 0.05881): 0.603; solubility (g/100 g solution) (313.15 K, x2 = 0.1233): 1.79; solubility (g/100 g solution) (313.15 K, x2 = 0.1942): 3.9; solubility (g/100 g solution) (313.15 K, x2 = 0.2727): 7.27; solubility (g/100 g solution) (313.15 K, x2 = 0.3599): 11.7; solubility (g/100 g solution) (313.15 K, x2 = 0.4576): 17.1; solubility (g/100 g solution) (313.15 K, x2 = 0.5675): 21.5; solubility (g/100 g solution) (313.15 K, x2 = 0.6923): 25.2; solubility (g/100 g solution) (313.15 K, x2 = 0.835): 27.6; solubility (g/100 g solution) (318.15 K, x2 = 0.05881): 0.726; solubility (g/100 g solution) (318.15 K, x2 = 0.1233): 2.1; solubility (g/100 g solution) (318.15 K, x2 = 0.1942): 4.5; solubility (g/100 g solution) (318.15 K, x2 = 0.2727): 8.39; solubility (g/100 g solution) (318.15 K, x2 = 0.3599): 13.1; solubility (g/100 g solution) (318.15 K, x2 = 0.4576): 19.2; solubility (g/100 g solution) (318.15 K, x2 = 0.5675): 23.6; solubility (g/100 g solution) (318.15 K, x2 = 0.6923): 27.2; solubility (g/100 g solution) (318.15 K, x2 = 0.835): 29.8; solubility (g/100 g solution) (323.15 K, x2 = 0.05881): 0.877; solubility (g/100 g solution) (323.15 K, x2 = 0.1233): 2.45; solubility (g/100 g solution) (323.15 K, x2 = 0.1942): 5.22; solubility (g/100 g solution) (323.15 K, x2 = 0.2727): 9.67; solubility (g/100 g solution) (323.15 K, x2 = 0.3599): 14.6; solubility (g/100 g solution) (323.15 K, x2 = 0.4576): 21.5; solubility (g/100 g solution) (323.15 K, x2 = 0.5675): 25.8; solubility (g/100 g solution) (323.15 K, x2 = 0.6923): 29.4; solubility (g/100 g solution) (323.15 K, x2 = 0.835): 32.4
